Experimental data: US20200093103A1, “BREEDING WATER FOR ANGUILLIFORMES AND METHOD FOR REARING ANGUILLIFORMES” (SHIN NIPPON BIOMEDICAL LABORATORIES, LTD., priority 2016, published 2020)

Tested on: Anguilla japonica leptocephali
Experiment: Induction of Anguilla japonica metamorphosis by T4 treatment in 23° C. breeding water
Type: in vivo
Parameters: key: L: During life, no characteristics of metamorphosis seen.; Stage 1: Starting phase of metamorphosis. The rostral end is rounded, and intestinal degeneration starts.; Stage 2: Peak phase of metamorphosis. Intestinal degeneration becomes pronounced.; Stage 3: Late phase of metamorphosis.; Stage 4: Pre-glass eel stage. Almost the eel form, but the body height still remains
Source text: Stage 1: Starting phase of metamorphosis. The rostral end is rounded, and intestinal degeneration starts.
Stage 2: Peak phase of metamorphosis. Intestinal degeneration becomes pronounced. In the second half, the anus reaches to near the last vertical blood vessel (VBV last).
Stage 3: Late phase of metamorphosis. The preanal length (PAL) becomes equal to or shorter than the last vertical blood vessel length (VBV last Length) (PAL VBV last Length). The body height is apparently low.
Stage 4: Pre-glass eel stage. Almost the eel form, but the body height still remains. Melanophores on the body surface or endogenous melanophores are not yet seen.
Elver stage: Juvenile stage. Food intake can be identified.
A thyroid hormone (e.g., thyroxine (T4)) is adjusted to 50 to 100 mM in a 1- to 2-mL volume messflask. As a solvent, known solvents (water, alcohol) can be used. Ethanol is preferably used as the solvent.
For example, using ethanol as a solvent, T4 adjusted to 50 mM is diluted 500-fold, 5,000-fold, and 50,000-fold, respectively, and adjusted to […], 1 μM, and 100 nM. A feed can be prepared in this manner.
Artificial seawater is added to a breeding vessel, and 1/1000 of the […] T4 is added to prepare […] T4 breeding water.
Half of the breeding water is replaced every two days with breeding water of the same concentration. In the case where the concentration is changed, for example, in the case of changing from 10 nM to 2 nM, 80% to the breeding water is removed, and unadjusted artificial seawater is newly added to make 1 L.
Leptocephali visually considered to have reached a total length of 40 mm (or may be 30 mm to 50 mm, may be 35 mm to 45 mm, or may also be 35 mm or more, 40 mm or more, or 45 mm or more) are selected, anesthetized with 2-phenoxyethanol, and then photographed, and the total length of each larva is measured using an image analyzing device.
The larvae are placed in 10 nM T4 breeding water and then placed in an incubator set at 23° C., and breeding is started. In first one week, observation is performed every two days, and half of the 10 nM T4 breeding water is replaced each time. The average amount of thyroid hormone in the breeding water in stage 1 is 1 nM to 100 nM, for example, and may also be 3 nM to 30 nM, or 5 nM to 20 nM.
For larvae visually judged to have reached the second half of stage 2, the concentration of the breeding water is changed. The breeding water is diluted 5-fold or 10-fold and adjusted to 2 nM or 1 nM T4, and breeding is continued. The average amount of thyroid hormone in the breeding water in stage 2 may be, as compared with the breeding water of stage 1, diluted 2-fold to 20-fold, diluted 3 to 15-fold, or diluted 5 to 10-fold as described above. The average amount of thyroid hormone in the breeding water in stage 2 is 0.1 nM to 20 nM, for example, and may also be 0.5 nM to 10 nM, 1 nM to 5 nM, or 1 nM to 2 nM.
For larvae visually judged to have reached stage 3, the breeding water is quickly changed 0.2 nM T4 breeding water, which is a 5-fold dilution of 1 nM T4 breeding water, and further changed to 0.1 nM T4 breeding water on the following day. […] Also, in larvae whose anus position has not reached the last vertical hemal spine, when they are judged to be on the brink of stage 3, the concentration is changed as above. The average amount of thyroid hormone in the breeding water in stage 3 may be, as compared with the breeding water of stage 2, diluted 2-fold to 50-fold, diluted 3 to 15-fold, diluted 4 to 6-fold, or diluted 5-fold as described above. The average amount of thyroid hormone in the breeding water in stage 3 is 0.01 nM to 2 nM, for example, and may also be 0.05 nM to 1 nM, 0.1 nM to 0.5 nM, or 0.1 nM to 0.2 nM. […] That is, the concentration may be changed such that the thyroid hormone becomes undetectable in the breeding water in the course of stage 3.
In stage 3, breeding is continuously performed in the 0.1 nM T4 breeding water. […]

In the case of N[C@@H](Cc1cc(I)c(Oc2cc(I)c(O)c(I)c2)c(I)c1)C(=O)O [T4, thyroxine], the metamorphosis stage (individual Exp. 5-2, 175 days old, total length 41.3 mm at start, c3 onward = treatment days 1,3,5,7,8,9,10,11,12,13,14,15,16,17,18, T4 (nM) 10,10,10,10,2,1,0.2,0.1,0.1,0.1,0.1,0.1, treatment day 14, T4 0.1 nM) is reported as 3, the metamorphosis stage (individual Exp. 5-2, 175 days old, total length 41.3 mm at start, c3 onward = treatment days 1,3,5,7,8,9,10,11,12,13,14,15,16,17,18, T4 (nM) 10,10,10,10,2,1,0.2,0.1,0.1,0.1,0.1,0.1, treatment day 15, T4 0.1 nM) is reported as 3 and the metamorphosis stage (individual Exp. 5-2, 175 days old, total length 41.3 mm at start, c3 onward = treatment days 1,3,5,7,8,9,10,11,12,13,14,15,16,17,18, T4 (nM) 10,10,10,10,2,1,0.2,0.1,0.1,0.1,0.1,0.1, treatment day 16) is reported as 4. For the same compound, the metamorphosis stage (individual Exp. 5-3, 175 days old, total length 41.7 mm at start, c3 onward = treatment days 1,3,5,7,8,9,10,11,12,13,14,15,16,17,18, T4 (nM) 10,10,10,10,2,1,0.2,0.1,0.1,0.1,0.1,0.1, treatment day 1, T4 10 nM) was “L”, the metamorphosis stage (individual Exp. 5-3, 175 days old, total length 41.7 mm at start, c3 onward = treatment days 1,3,5,7,8,9,10,11,12,13,14,15,16,17,18, T4 (nM) 10,10,10,10,2,1,0.2,0.1,0.1,0.1,0.1,0.1, treatment day 3, T4 10 nM) was “L” and the metamorphosis stage (individual Exp. 5-3, 175 days old, total length 41.7 mm at start, c3 onward = treatment days 1,3,5,7,8,9,10,11,12,13,14,15,16,17,18, T4 (nM) 10,10,10,10,2,1,0.2,0.1,0.1,0.1,0.1,0.1, treatment day 5, T4 10 nM) was 1. The metamorphosis stage (individual Exp. 5-3, 175 days old, total length 41.7 mm at start, c3 onward = treatment days 1,3,5,7,8,9,10,11,12,13,14,15,16,17,18, T4 (nM) 10,10,10,10,2,1,0.2,0.1,0.1,0.1,0.1,0.1, treatment day 7, T4 10 nM) was 2, the metamorphosis stage (individual Exp. 5-3, 175 days old, total length 41.7 mm at start, c3 onward = treatment days 1,3,5,7,8,9,10,11,12,13,14,15,16,17,18, T4 (nM) 10,10,10,10,2,1,0.2,0.1,0.1,0.1,0.1,0.1, treatment day 8, T4 2 nM) was 2 and the metamorphosis stage (individual Exp. 5-3, 175 days old, total length 41.7 mm at start, c3 onward = treatment days 1,3,5,7,8,9,10,11,12,13,14,15,16,17,18, T4 (nM) 10,10,10,10,2,1,0.2,0.1,0.1,0.1,0.1,0.1, treatment day 9, T4 1 nM) was 2. It also gave a metamorphosis stage (individual Exp. 5-3, 175 days old, total length 41.7 mm at start, c3 onward = treatment days 1,3,5,7,8,9,10,11,12,13,14,15,16,17,18, T4 (nM) 10,10,10,10,2,1,0.2,0.1,0.1,0.1,0.1,0.1, treatment day 10, T4 0.2 nM) of 2, a metamorphosis stage (individual Exp. 5-3, 175 days old, total length 41.7 mm at start, c3 onward = treatment days 1,3,5,7,8,9,10,11,12,13,14,15,16,17,18, T4 (nM) 10,10,10,10,2,1,0.2,0.1,0.1,0.1,0.1,0.1, treatment day 11, T4 0.1 nM) of 3 and a metamorphosis stage (individual Exp. 5-3, 175 days old, total length 41.7 mm at start, c3 onward = treatment days 1,3,5,7,8,9,10,11,12,13,14,15,16,17,18, T4 (nM) 10,10,10,10,2,1,0.2,0.1,0.1,0.1,0.1,0.1, treatment day 12, T4 0.1 nM) of 3. The metamorphosis stage (individual Exp. 5-3, 175 days old, total length 41.7 mm at start, c3 onward = treatment days 1,3,5,7,8,9,10,11,12,13,14,15,16,17,18, T4 (nM) 10,10,10,10,2,1,0.2,0.1,0.1,0.1,0.1,0.1, treatment day 13, T4 0.1 nM) was 3, the metamorphosis stage (individual Exp. 5-3, 175 days old, total length 41.7 mm at start, c3 onward = treatment days 1,3,5,7,8,9,10,11,12,13,14,15,16,17,18, T4 (nM) 10,10,10,10,2,1,0.2,0.1,0.1,0.1,0.1,0.1, treatment day 14, T4 0.1 nM) was 3 and the metamorphosis stage (individual Exp. 5-3, 175 days old, total length 41.7 mm at start, c3 onward = treatment days 1,3,5,7,8,9,10,11,12,13,14,15,16,17,18, T4 (nM) 10,10,10,10,2,1,0.2,0.1,0.1,0.1,0.1,0.1, treatment day 15, T4 0.1 nM) was 3. For the same compound, the metamorphosis stage (individual Exp. 5-3, 175 days old, total length 41.7 mm at start, c3 onward = treatment days 1,3,5,7,8,9,10,11,12,13,14,15,16,17,18, T4 (nM) 10,10,10,10,2,1,0.2,0.1,0.1,0.1,0.1,0.1, treatment day 16) was 3, the metamorphosis stage (individual Exp. 5-3, 175 days old, total length 41.7 mm at start, c3 onward = treatment days 1,3,5,7,8,9,10,11,12,13,14,15,16,17,18, T4 (nM) 10,10,10,10,2,1,0.2,0.1,0.1,0.1,0.1,0.1, treatment day 17) was 3 and the metamorphosis stage (individual Exp. 5-3, 175 days old, total length 41.7 mm at start, c3 onward = treatment days 1,3,5,7,8,9,10,11,12,13,14,15,16,17,18, T4 (nM) 10,10,10,10,2,1,0.2,0.1,0.1,0.1,0.1,0.1, treatment day 18) was 4. The metamorphosis stage (individual Exp. 5-6, 174 days old, total length 34.5 mm at start, c3 onward = treatment days 1,3,5,7,8,9,10,11,12,13,14,15,16,17,18,20,22, T4 (nM) 10,10,10,10,10,10,10,2,1,1,0.2,0.1,0.1,0.1,0.1,0.1,0.1, treatment day 1, T4 10 nM) was “L”, the metamorphosis stage (individual Exp. 5-6, 174 days old, total length 34.5 mm at start, c3 onward = treatment days 1,3,5,7,8,9,10,11,12,13,14,15,16,17,18,20,22, T4 (nM) 10,10,10,10,10,10,10,2,1,1,0.2,0.1,0.1,0.1,0.1,0.1,0.1, treatment day 3, T4 10 nM) was “L” and the metamorphosis stage (individual Exp. 5-6, 174 days old, total length 34.5 mm at start, c3 onward = treatment days 1,3,5,7,8,9,10,11,12,13,14,15,16,17,18,20,22, T4 (nM) 10,10,10,10,10,10,10,2,1,1,0.2,0.1,0.1,0.1,0.1,0.1,0.1, treatment day 5, T4 10 nM) was “L”. The metamorphosis stage (individual Exp. 5-6, 174 days old, total length 34.5 mm at start, c3 onward = treatment days 1,3,5,7,8,9,10,11,12,13,14,15,16,17,18,20,22, T4 (nM) 10,10,10,10,10,10,10,2,1,1,0.2,0.1,0.1,0.1,0.1,0.1,0.1, treatment day 7, T4 10 nM) was “L”, the metamorphosis stage (individual Exp. 5-6, 174 days old, total length 34.5 mm at start, c3 onward = treatment days 1,3,5,7,8,9,10,11,12,13,14,15,16,17,18,20,22, T4 (nM) 10,10,10,10,10,10,10,2,1,1,0.2,0.1,0.1,0.1,0.1,0.1,0.1, treatment day 8, T4 10 nM) was 2 and the metamorphosis stage (individual Exp. 5-6, 174 days old, total length 34.5 mm at start, c3 onward = treatment days 1,3,5,7,8,9,10,11,12,13,14,15,16,17,18,20,22, T4 (nM) 10,10,10,10,10,10,10,2,1,1,0.2,0.1,0.1,0.1,0.1,0.1,0.1, treatment day 9, T4 10 nM) was 2. It also gave a metamorphosis stage (individual Exp. 5-6, 174 days old, total length 34.5 mm at start, c3 onward = treatment days 1,3,5,7,8,9,10,11,12,13,14,15,16,17,18,20,22, T4 (nM) 10,10,10,10,10,10,10,2,1,1,0.2,0.1,0.1,0.1,0.1,0.1,0.1, treatment day 10, T4 10 nM) of 2.
